Measurements as given in article PMC5626031, “Differential inhibition of adenylylated and deadenylylated forms of M. tuberculosis glutamine synthetase as a drug discovery platform” (PLoS ONE, 2017).
“Also recorded” adds a separate entry of the source. Like-named read-outs stand apart in the source and are kept apart here.

Experiments:
[1] = molecular target: T1, deadenylylated MtbGS (Mycobacterium tuberculosis, UniProt P9WN39); test: biochemical; parameters: species or system M. tuberculosis; settings: 10μM final concentration, pre-incubation protocol
T1 construct: made in house; host or cells: E. coli YMC11E with pTBSK
T1 sequence (P9WN39 2-478 limits assumed): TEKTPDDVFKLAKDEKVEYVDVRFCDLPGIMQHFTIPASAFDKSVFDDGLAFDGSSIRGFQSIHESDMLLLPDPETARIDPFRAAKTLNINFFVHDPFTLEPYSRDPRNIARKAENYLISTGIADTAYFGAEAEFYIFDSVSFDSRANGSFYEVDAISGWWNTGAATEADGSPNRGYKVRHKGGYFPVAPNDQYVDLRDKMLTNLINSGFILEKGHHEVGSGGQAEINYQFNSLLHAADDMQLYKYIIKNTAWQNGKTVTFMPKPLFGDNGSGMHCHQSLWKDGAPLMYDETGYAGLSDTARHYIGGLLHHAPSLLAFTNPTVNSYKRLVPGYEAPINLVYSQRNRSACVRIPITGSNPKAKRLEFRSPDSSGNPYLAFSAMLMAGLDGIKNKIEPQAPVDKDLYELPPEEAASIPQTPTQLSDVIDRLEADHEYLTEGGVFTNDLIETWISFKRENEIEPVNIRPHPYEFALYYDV

[2] = molecular target: T2, adenylylated MtbGS (Mycobacterium tuberculosis, UniProt P9WN39); test: biochemical; format: biochemical, M. tuberculosis; settings: for inhibition at 10 µM: 10μM final concentration, pre-incubation protocol; for Selectivity for adenylylated vs deadenylylated MtbGS: from % inhibition at 10μM of both enzyme forms
T2 construct: made in house; host or cells: E. coli YMC11E(DE3) with pTBSK and pTBglnE
T2 sequence (P9WN39 2-478 limits assumed): as above

[3] = system: M.tb H37Rv reference strain; test: BACTEC 460TB assay of mycobacterial growth; format: cell-based, Mycobacterium tuberculosis; settings: for Activity against M.tb H37Rv, in words: 100 μM final concentration; for Growth inhibition of M.tb H37Rv (percentage of growth index): 100 μM, day 6 of incubation, relative to control cultures
[4] = system: M.tb (Beijing220) in mouse bone-marrow derived macrophages; test: Intracellular M.tb in mouse bone-marrow derived macrophage assay; format: cell-based, Mycobacterium tuberculosis; settings: for Activity against intracellular M.tb (Beijing220), in words / Percentage killing of intracellular M.tb (Beijing220), Fig 7: 100 μM; for Activity against intracellular M.tb (Beijing220), in words: Fig 7; for Percentage killing of intracellular M.tb (Beijing220), Fig 7: MOI 2:1, drug on day 4 post infection, harvest day 2 post drug, first experiment (8 selective compounds)
[5] = average over the 4 screens, read-out: Deadenylated Mtb GS (% inhibition) AVG
[6] = screen 1, read-out: Deadenylated Mtb GS (% inhibition) Screen 1
[7] = screen 2, read-out: Deadenylated Mtb GS (% inhibition) Screen 2
[8] = screen 3, read-out: Deadenylated Mtb GS (% inhibition) Screen 3
[9] = screen 4, read-out: Deadenylated Mtb GS (% inhibition) Screen 4
[10] = average over the 4 screens, read-out: Adenylated Mtb GS (% inhibition) AVG
[11] = screen 1, read-out: Adenylated Mtb GS (% inhibition) Screen 1
[12] = screen 2, read-out: Adenylated Mtb GS (% inhibition) Screen 2
[13] = screen 3, read-out: Adenylated Mtb GS (% inhibition) Screen 3
[14] = screen 4, read-out: Adenylated Mtb GS (% inhibition) Screen 4

Compound | inhibition at 10 µM [1, 5] | inhibition at 10 µM [1, 6] | inhibition at 10 µM [1, 7] | inhibition at 10 µM [1, 8] | inhibition at 10 µM [1, 9] | inhibition at 10 µM [2, 10] | inhibition at 10 µM [2, 11] | inhibition at 10 µM [2, 12] | inhibition at 10 µM [2, 13] | inhibition at 10 µM [2, 14] | Activity against M.tb H37Rv, in words [3] | Activity against intracellular M.tb (Beijing220), in words [4] | Percentage killing of intracellular M.tb (Beijing220), Fig 7 [4] | Selectivity for adenylylated vs deadenylylated MtbGS [2] | Growth inhibition of M.tb H37Rv (percentage of growth index) [3] | Percentage killing of intracellular M.tb (Beijing220), Fig 8 ([4]; 100 μM for 2 days, second experiment at 10, 50 and 100 μM)
NC(CCS(=O)(=O)O)C(=O)O (stereo not shown) [Compound 5] | 2% | 0% | 0% | 6% | 0% | 38% | 48% | 33% | 40% | 29% | – | – | – | – | – | –
O=C(O)c1ccncc1 [Compound 5002] | 8% | 0% | 10% | 8% | 14% | 45% | 68% | 40% | 38% | 35% | no activity | – | – | – | – | –
Nc1nc(N)c(NC(=O)c2ccccc2)c(O)n1 [Compound 5009] | 47% | 57% | 41% | 44% | 44% | 40% | 37% | 50% | 50% | 22% | no activity | – | – | – | – | –
O=C1NC(C(=O)O)=C(C(=O)O)C(c2ccc([N+](=O)[O-])cc2)N1 (stereo not shown) [Compound 5012] | 15% | 14% | 16% | 4% | 24% | 40% | 55% | 31% | 32% | 42% | no activity | – | – | – | – | –
Cc1nc(N)cc(C[n+]2csc(CCOP(=O)(O)O)c2C)n1 [Compound 5016] | 11% | 7% | 19% | 3% | 13% | 43% | 51% | 43% | 46% | 30% | no activity | – | – | – | – | –
OCCNc1cc(N2CCCC2)ncn1 [Compound 5024] | 47% | 49% | 44% | 52% | 44% | 43% | 46% | 48% | 43% | 36% | no activity | – | – | – | – | –
c1ccc(CNc2cc(N3CCCC3)ncn2)cc1 [Compound 5029] | 7% | 5% | 8% | 7% | 9% | 60% | 79% | 46% | 56% | 60% | – | moderate activity | 67% | GS-adenylylated specific | 66% | –
O=NN(Cc1ccccc1)c1cc(N2CCCC2)ncn1 [Compound 5045] | 48% | 44% | 45% | 54% | 48% | 0% | 0% | 0% | 0% | 0% | – | moderate activity | 64% | significant selectivity for the deadenylylated MtbGS; also recorded: deadenylylated selective; also recorded: specific to the de-adenylylated form of GS | 98% | 73%
